In US7666871B2, “Oxazole derivatives as histamine H3 receptor agents, preparation and therapeutic uses” (Eli Lilly and Company, priority 2004, dated 2010):

Molecular target: T1, human H3R (Homo sapiens, UniProt Q9Y5N1)
T1 construct: expressed in transfected cells; pcDNA3.1(+) vector, G418 selection), membranes
Assay: Histamine H3 Receptor Binding Assay (competitive inhibition SPA, membranes of transfected HEK293 cells)
Conditions: Ki's at the human H3R
From the text: The compounds of the present invention can readily be evaluated by using a competitive inhibition Scintillation Proximity Assay (SPA) based on a H3R binding assay using R-[3H] α methylhistamine as ligand. Stable cell lines, including but not limited to HEK can be transfected with cDNA coding for H3R to prepare membranes used for the binding assay. The technique is illustrated below (Preparation of Histamine Receptor Subtype Membranes) for the histamine receptor subtypes.
cDNA for the human histamine 1 receptor (H1R) was cloned into a mammalian expression vector containing the CMV promoter (pcDNA3.1(+), Invitogen) and transfected into HEK293 cells using the FuGENE Tranfection Reagent (Roche Diagnostics Corporation). Transfected cells were selected using G418 (500 μ/mL). Colonies that survived selection were grown and tested for histamine binding to cells grown in 96-well dishes using a scintillation proximity assay (SPA) based radioligand binding assay. Briefly, cells, representing individual selected clones, were grown as confluent monolayers in 96-well dishes (Costar Clear Bottom Plates, #3632) by seeding wells with 25,000 cells and growing for 48 hours (37° C., 5% CO2). […] Plates were counted in a Wallac Trilux 1450 Microbeta scintillation counter. […]
cDNA for the human histamine 3 receptor was cloned and expressed as described in (A. Preparation H1R membranes), above. […]

T1 sequence (Q9Y5N1 whole entry): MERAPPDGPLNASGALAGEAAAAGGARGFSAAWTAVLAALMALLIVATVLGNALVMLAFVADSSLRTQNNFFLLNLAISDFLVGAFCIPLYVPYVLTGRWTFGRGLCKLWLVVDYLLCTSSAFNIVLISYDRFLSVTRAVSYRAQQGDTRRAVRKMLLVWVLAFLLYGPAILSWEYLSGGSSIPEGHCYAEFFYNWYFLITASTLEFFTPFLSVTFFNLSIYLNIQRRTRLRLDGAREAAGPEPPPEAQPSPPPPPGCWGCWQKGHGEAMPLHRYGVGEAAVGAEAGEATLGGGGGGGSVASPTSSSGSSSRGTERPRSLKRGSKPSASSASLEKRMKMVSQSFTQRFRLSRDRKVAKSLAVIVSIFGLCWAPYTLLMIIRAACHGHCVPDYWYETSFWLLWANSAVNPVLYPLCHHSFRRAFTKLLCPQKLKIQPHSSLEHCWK

| Ki | Structure (SMILES) |
| --- | --- |
| 1.6 nM | CS(=O)(=O)Nc1ccc(-c2ccc(-c3nc(CN4CCCC4)co3)cc2)cc1 |
| 14.3 nM | COC[C@@H]1CCCN1CCc1nc(-c2ccc(-c3cccnc3)cc2)oc1C |
